Experimental data as given in US10758517B2, “mPGES-1 inhibitor for the treatment of osteoarthritis pain” (Glenmark Pharmaceuticals S.A., priority 2017, dated 2020).
Marks after values point to notes of the source that are not given here.

Test system: LPS-induced PGE2 release
Assay: Ex vivo LPS-induced PGE2 release in whole blood, single dose crossover versus celecoxib (Example 1, Part 3)
Set-up: species or system human
Settings: single oral dose 400 mg, fasted healthy subjects
Description: Part 2 was a single-dose, double-blind study in a single cohort of elderly subjects. Part 3 was an open-label, randomized, 2-period, single-dose, crossover study to compare effects of the highest tolerated Compound I dose and celecoxib on prostanoid metabolism in healthy adult subjects.
In Part 3, Compound I was administered at a dose of 1000 mg after fasting. All subjects received Compound I and all subjects received 400 mg celecoxib in a cross-over study design.
In Parts 1a and 3, whole blood samples were incubated and analyzed for lipopolysaccharide (LPS)-induced prostaglandin PGE2 release. In Part 3, urine samples were collected for analysis of prostanoid metabolites.
Summary statistics were presented for the PK, pharmacodynamic (PD) and safety data, as appropriate. PK parameters following single oral doses of Compound I were determined from the plasma concentrations of Compound I using non-compartmental procedures in WinNonlin Dose proportionality was assessed using a power model, with tmax analyzed using the Kruskal-Wallis test. The effect of food on PK was assessed at the 100 and 250 mg doses using a mixed effects model. The effect of age on PK was assessed for elderly (>65 years) versus non-elderly (<65 years) at the 250 mg dose level in Parts 1a and 2, using an analysis of variance (ANOVA) with age as a fixed effect. For PD analyses, percent decrease of ex vivo LPS-induced PGE2 release was calculated. For Part 3, urinary excretion of prostanoid metabolites was also evaluated. The data are presented as absolute, as well as creatinine normalized urinary biomarker amounts, along percent change from baseline over a definite time interval. The percent change from baseline in urinary biomarkers was assessed using an analysis of covariance (ANCOVA) model
Percent change in ex vivo LPS-induced PGE2 release in whole blood is the pharmacodynamic (PD) biomarker. The PGE2 levels in whole blood were estimated using the homogeneous time-resolved fluorescence method.
Concentrations below the limit of quantification were treated as ½ the lower limit of quantification for calculation.
Time points where unstimulated prostaglandin E2 (PGE2) concentration was more than 3 times greater than the mean unstimulated PGE2 and equal to or greater than ½ baseline value for an individual subject were not included in the calculation of % inhibition.

SMILES: Cc1ccc(-c2cc(C(F)(F)F)nn2-c2ccc(S(N)(=O)=O)cc2)cc1 [Celecoxib, celecoxib, reference compound]
- EAUC0-24 h, LS mean: 1421 % · h
- ETmax (time to reach maximum effect), Median: 6.00 h
- Epeak (maximum % inhibition), LS mean: 89.1%
- EAUC0-336 h, LS mean (N = 18): −10159^a % · h
